Measured values published in publication PMC6982167, “Development of an Improved Peroxidase-Based High-Throughput Screening for the Optimization of D-Glycerate Dehydratase Activity” (International Journal of Molecular Sciences, 2020).

Legend:
[1] = biological target: T1, SsDHAD (dihydroxyacid dehydratase from Sulfolobus solfataricus) (Saccharolobus solfataricus, UniProt Q97UB2); experiment: discontinuous dehydration assay, HPLC (2-keto-3-deoxygluconate); type: biochemical; conditions: 20 mM D-gluconate, 50 °C, 60 min
T1 construct: gene ilvD; full-length synthetic gene in pET24a(+) via NdeI/XhoI, reverse primer carries stop codon (no tag); E. coli BL21(DE3); heat step 70 °C with 2-mercaptoethanol, desalted; iron-sulfur cluster
T1 sequence (Q97UB2 whole entry): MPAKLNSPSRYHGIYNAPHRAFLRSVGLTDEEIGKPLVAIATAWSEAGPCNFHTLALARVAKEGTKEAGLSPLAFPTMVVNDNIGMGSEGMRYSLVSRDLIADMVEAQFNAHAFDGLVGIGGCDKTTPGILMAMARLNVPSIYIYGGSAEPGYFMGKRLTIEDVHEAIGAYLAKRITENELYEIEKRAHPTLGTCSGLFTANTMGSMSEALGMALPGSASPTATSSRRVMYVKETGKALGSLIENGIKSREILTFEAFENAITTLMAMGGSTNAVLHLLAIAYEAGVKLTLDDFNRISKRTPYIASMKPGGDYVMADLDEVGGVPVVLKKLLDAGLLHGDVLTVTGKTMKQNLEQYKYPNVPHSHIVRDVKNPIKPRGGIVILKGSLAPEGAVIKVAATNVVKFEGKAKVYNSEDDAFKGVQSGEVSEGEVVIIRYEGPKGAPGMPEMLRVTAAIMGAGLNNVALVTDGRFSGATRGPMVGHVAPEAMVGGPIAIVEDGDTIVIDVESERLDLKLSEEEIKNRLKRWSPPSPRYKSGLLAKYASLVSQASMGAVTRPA

[2] = biological target: T1, SsDHAD (dihydroxyacid dehydratase from Sulfolobus solfataricus); experiment: discontinuous dehydration assay, pyruvate by HPLC; type: biochemical; conditions: supplied as D/L-glycerate 40 mM, pH 7.0, 50 °C, 60 min

SMILES | specific activity [1] | specific activity [2]
O=C(O)[C@H](O)[C@@H](O)[C@H](O)[C@H](O)CO [D-gluconate] | we also tested the conversion of D-gluconate to 2-keto-deoxy gluconate | –
O=C(O)[C@H](O)CO [D-glycerate] | – | wildtype showed an activity for the dehydration of D-glycerate
